Results reported in patent publication US6432434B1, “Treatment of and/or prophylaxis against brain and spinal cord injury” (The United States of America as represented by the …, priority 1999, dated 2002).
Where two headings read alike, the source gives them in different places.

Legend:
[1] = tested on: rats injected intrathecally with dynorphin A; assay: Dynorphin A-induced paralysis in rats, neurological score; format: in vivo, rat; settings: n = 9, 5 μmoles DHL in DMSO intrathecally
Method: Rats were injected with […] of dynorphin A in combination with DMSO (vehicle only) or dynorphin A (Dny) with 5 μmoles of dihydrolipoate in DMSO. The DMSO (control) and the DMSO with dihydrolipoate (DHL/DMSO) were administered as 2 hour pretreatment before administration of the dynorphin A and as cotreatment with dynorphin A. All rats were flaccidly paralyzed 10 minutes following dynorphin a injections. All injections were administered intrathecally.

[2] = tested on: NMDA and malonic acid lesions of striatum; settings: rats; cited from earlier work
[3] = tested on: ischemia-reperfusion injury; settings: rat; cited from earlier work
[4] = tested on: ischemia-reperfusion injury; settings: gerbil; cited from earlier work
[5] = man, cited from earlier work
[6] = 2 hrs, pretreatment and cotreatment with dynorphin A
[7] = 24 hrs, pretreatment and cotreatment with dynorphin A

| Structure (SMILES) | Number of animals with neurological score 4 (normal) ([1]; 2 hrs, 2 hour pretreatment and cotreatment with 20 μmoles dynorphin A, 4 normal, 0 flaccid paralysis) | Number of animals with neurological score 0 (flaccid paralysis) [1, 6] | Number of animals with neurological score 1 [1, 6] | Number of animals with neurological score 2 [1, 6] | Number of animals with neurological score 3 [1, 6] | Number of animals with neurological score 1 [1, 7] | Number of animals with neurological score 3 [1, 7] | Number of animals with neurological score 4 (normal) [1, 7] | Effect against NMDA lesions of striatum [2] | Effect against malonic acid lesions of striatum [2] | Neuroprotection against ischemia-reperfusion injury [3] | Neuroprotection against ischemia-reperfusion injury [4] | Clinical safety / tolerability [5] | Clinical safety / tolerability ([5]; listed as αLA) |
| --- | --- | --- | --- | --- | --- | --- | --- | --- | --- | --- | --- | --- | --- | --- |
| O=C(O)CCCC[C@@H](S)CCS (racemic) [DHL, dihydrolipoic acid] | 2 | 1 | 1 | 2 | 3 | 2 | 3 | 4 | – | – | – | – | – | – |
| O=C(O)CCCCC1CCSS1 (stereo not drawn) [Alpha lipoic acid] | – | – | – | – | – | – | – | – | effective | effective | neuroprotective | neuroprotective | clinically safe | well tolerated |
